In patent US11028066B2, “Inhibitors of lysine specific demethylase-1” (CELGENE QUANTICEL RESEARCH, INC., priority 2014, dated 2021):

Legend:
THP-1 (AML) cells = assay: LSD1 CD11b cellular assay (flow cytometry); format: cell-based; conditions: Homo sapiens, THP-1, 96 h; CD11b expressing cells, 4 days incubation
Kasumi-1 = Kasumi-1 AML cell line proliferation assay (Cell-MTS assay); format: cell-based; conditions: Homo sapiens, 168 hours incubation
From the text: Colorimetric cellular assay to assess the ability of LSD-1 small molecule inhibitors to effect the proliferation of the established AML cancer cell line Kasumi-1.
This Cell-MTS assay is a 7-day plate based colorimetric assay which quantifies the amount of newly generated NADH in the presence and absence of test compound. These NADH levels are used as a proxy for the quantification of cancer cell proliferation.
The established cancer cell line Kasumi-1 with a verified p53 mutation were purchased from American Type Culture Collection (ATCC) and routinely passaged according to ATCC published protocols. For routine assay these cells were seeded at a density of 20,000 cells per 96-well. 24 hours after plating, cells received an 11 point dilution of test compound with final concentration ranges from 100 μM to 2.0 nM. Cells are incubated in the presence of compound for 168 hours at 37° C., 5% CO2. At the end of this compound incubation period, 80 μl of media is removed and 20 μL of CellTiter 96® AQueous Non-Radioactive Cell Proliferation Assay solution (Promega) is added. The cells are incubated until the OD490 is >0.6. IC50 values are calculated using the IDBS XLfit software package and include background subtracted OD490 values and normalization to DMSO controls.
Table 5 provides the Kasumi-1 cellular IC50 values of various substituted heterocyclic compounds disclosed herein.

full-length human LSD1 = full-length human LSD1 (Homo sapiens (Human), UniProt O60341); assay: In vitro enzyme inhibition assay LSD-1 (TR-FRET); format: biochemical; conditions: H3K4me1-biotin peptide
Procedure, shortened: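 Demethylase activity of full-length human LSD1 was detected by TR-FRET after 1 hour incubation at room temperature. Excitation was at 320 nm, with emission at 615 nm and 665 nm. IC50 values were derived from the inhibition data.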

Compound | IC50 (THP-1 (AML) cells) | IC50 (full-length human LSD1) | IC50 (Kasumi-1)
CN(C)c1ccc(-c2c(-c3ccc(C#N)c(F)c3)cc(N3CCC(N)CC3)c(=O)n2C)cn1 [Example 91, 4-{5-(4-aminopiperidyl)-2-[6-(dimethylamino)(3-pyridyl)]-1-methyl-6-oxo(3-hydropyridyl)}-2-fluorobenzenecarbonitrile] | < 100 nM | < 100 nM | ≤ 100 nM
COc1ccc(-c2c(-c3ccc(C#N)cc3)cc(N3CCC(N)CC3)c(=O)n2C)cc1 [Example 77, 4-[5-(4-aminopiperidin-1-yl)-2-(4-methoxyphenyl)-1-methyl-6-oxopyridin-3-yl]benzonitrile] | < 100 nM | < 100 nM | ≤ 100 nM
Cc1ccc(-c2c(-c3ccc(C#N)cc3)nc(N3CCC(N)CC3)c(=O)n2CCCO)cc1 [Example 40, 4-[6-(4-amino-piperidin-1-yl)-4-(3-hydroxy-propyl)-5-oxo-3-p-tolyl-4,5-dihydro-pyrazin-2-yl]-benzonitrile] | < 100 nM | < 100 nM | ≤ 100 nM
Cc1ccc(-c2c(-c3ccc(C#N)c(F)c3)cc(N3CCC(N)CC3)c(=O)n2C)cc1 [Example 76, 4-[5-(4-aminopiperidin-1-yl)-1-methyl-2-(4-methylphenyl)-6-oxopyridin-3-yl]-2-fluorobenzonitrile] | < 100 nM | < 100 nM | ≤ 100 nM
Cc1ccc(-c2c(-c3ccc(C#N)c(F)c3)nc(N3CCC(N)CC3)c(=O)n2CCCO)cc1 [Example 46, 4-[6-(4-aminopiperidyl)-4-(3-hydroxypropyl)-3-(4-methylphenyl)-5-oxo(4-hydropyrazin-2-yl)]-2-fluorobenzenecarbonitrile] | < 100 nM | < 100 nM | ≤ 100 nM
Cc1ccc(-c2c(-c3ccc(C#N)cc3)cc(N3CCC(N)CC3)c(=O)n2C)cc1 [Example 75, 4-[5-(4-aminopiperidin-1-yl)-1-methyl-2-(4-methylphenyl)-6-oxopyridin-3-yl]benzonitrile] | < 100 nM | < 100 nM | ≤ 100 nM
COc1ccc(-c2c(-c3ccc(C#N)cc3)cc(N3CCC(N)CC3)c(=O)n2C)cc1F [Example 83, 4-[5-(4-aminopiperidin-1-yl)-2-(3-fluoro-4-methoxyphenyl)-1-methyl-6-oxopyridin-3-yl]benzonitrile] | < 100 nM | < 100 nM | ≤ 100 nM
Cn1c(-c2ccc3c(c2)ncn3C)c(-c2ccc(C#N)c(F)c2)nc(N2CCC(N)CC2)c1=O [Example 60, 4-[6-(4-amino-piperidin-1-yl)-4-methyl-3-(1-methyl-1H-benzoimidazol-5-yl)-5-oxo-4,5-dihydro-pyrazin-2-yl]-2-fluoro-benzonitrile] | < 100 nM | < 100 nM | ≤ 100 nM

Continued, in another order:

IC50 (THP-1 (AML) cells) | IC50 (full-length human LSD1) | Compound | IC50 (Kasumi-1)
< 100 nM | < 100 nM | COc1ccc(-c2c(-c3ccc(C#N)c(F)c3)nc(NC[C@H]3CCNC3)c(=O)n2C)cc1 [Example 55, 2-fluoro-4-{3-(4-methoxy-phenyl)-4-methyl-5-oxo-6-[((3S)-pyrrolidin-3-ylmethyl)-amino]-4,5-dihydro-pyrazin-2-yl}-benzonitrile] | ≤ 100 nM
< 100 nM | < 100 nM | Cn1c(-c2ccc(C3CC3)cc2)c(-c2ccc(C#N)c(F)c2)cc(NC[C@H]2CCNC2)c1=O [Example 74, (S)-4-(2-(4-cyclopropylphenyl)-1-methyl-6-oxo-5-(pyrrolidin-3-ylmethylamino)-1,6-dihydropyridin-3-yl)-2-fluorobenzonitrile] | ≤ 100 nM
< 100 nM | < 100 nM | Cc1ccc(-c2c(-c3ccc(C#N)c(F)c3)nc(NC[C@H]3CCNC3)c(=O)n2CCO)cc1 [Example 44, 4-(6-{[((3S)-pyrrolidin-3-yl)methyl]amino}-4-(2-hydroxyethyl)-3-(4-methylphenyl)-5-oxo(4-hydropyrazin-2-yl))-2-fluorobenzenecarbonitrile] | ≤ 100 nM
< 100 nM | < 100 nM | COc1ccc(-c2c(-c3ccc(C#N)cc3)nc(NC[C@H]3CCNC3)c(=O)n2C)cc1 [Example 31, 4-[3-(4-methoxyphenyl)-4-methyl-5-oxo-6-{[(3S)-pyrrolidin-3-ylmethyl]amino}-4,5-dihydropyrazin-2-yl]benzonitrile] | ≤ 100 nM
< 100 nM | < 100 nM | COc1ccc(-c2c(-c3ccc(C#N)c(F)c3)cc(NC[C@H]3CCNC3)c(=O)n2C)cc1 [Example 70, (S)-2-fluoro-4-(2-(4-methoxyphenyl)-1-methyl-6-oxo-5-(pyrrolidin-3-ylmethylamino)-1,6-dihydropyridin-3-yl)benzonitrile] | ≤ 100 nM
